Reference: patent US20260176320A1, “MODULATORS OF G-PROTEIN COUPLED RECEPTORS” (priority 2018, published 2026)
Where two headings read alike, the source gives them in different places. Numbered stars: 1 amine (or outer) side, 2 acyl side, 3 side chain; on linkers, the order of the positions; unused ones are H or OH. Square brackets hold non-standard residues; d marks the D form. Side chains are listed from the residue outwards. Peptide text beside a SMILES is read from it. * marks the point of attachment. γGlu = O=C(O)[C@H](CCC(=O)[*:2])N[*:1]; X2 = O=C(CSCC(=O)*)NCCN1C(=O)CSC1=O; Palmitoyl = CCCCCCCCCCCCCCCC(=O)*; Aib = CC(C)(N)C(=O)O

What was measured:
Format in all cases: cell-based
[1] = target: T1, GLP-1R (Homo sapiens, UniProt P43220); assay: HitHunter cAMP assay (GLP-1R); conditions: cAMP; for Emax: read-out: (Emax) GLP-1R
T1 sequence (P43220 24-463): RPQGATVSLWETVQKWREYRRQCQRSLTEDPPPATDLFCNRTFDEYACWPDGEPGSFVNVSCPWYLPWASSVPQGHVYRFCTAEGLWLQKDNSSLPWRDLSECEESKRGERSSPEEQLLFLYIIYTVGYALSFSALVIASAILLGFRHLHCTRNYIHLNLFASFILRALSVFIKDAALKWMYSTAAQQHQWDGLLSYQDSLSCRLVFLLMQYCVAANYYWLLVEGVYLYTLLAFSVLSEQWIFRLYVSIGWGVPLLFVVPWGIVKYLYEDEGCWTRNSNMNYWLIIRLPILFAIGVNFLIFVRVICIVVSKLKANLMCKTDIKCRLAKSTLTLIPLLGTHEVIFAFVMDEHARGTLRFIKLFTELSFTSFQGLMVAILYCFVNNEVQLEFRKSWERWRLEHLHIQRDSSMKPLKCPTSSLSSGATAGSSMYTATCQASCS
Method in brief: (§1)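 cAMP accumulation read by luminescent HitHunter immunocompetition after 30 min room-temperature agonist stimulation. Agonists tested as 22-point twofold dilutions, in duplicate, on 10,000 cells/well in HBSS containing 625 μM IBMX, 10 mM HEPES and 0.2% BSA.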

[2] = target: T2, GIP-R (Homo sapiens, UniProt P48546); assay: HitHunter cAMP assay (GIP-R); conditions: cAMP; for Emax: read-out: (Emax) GIP-R
T2 sequence (P48546 22-466): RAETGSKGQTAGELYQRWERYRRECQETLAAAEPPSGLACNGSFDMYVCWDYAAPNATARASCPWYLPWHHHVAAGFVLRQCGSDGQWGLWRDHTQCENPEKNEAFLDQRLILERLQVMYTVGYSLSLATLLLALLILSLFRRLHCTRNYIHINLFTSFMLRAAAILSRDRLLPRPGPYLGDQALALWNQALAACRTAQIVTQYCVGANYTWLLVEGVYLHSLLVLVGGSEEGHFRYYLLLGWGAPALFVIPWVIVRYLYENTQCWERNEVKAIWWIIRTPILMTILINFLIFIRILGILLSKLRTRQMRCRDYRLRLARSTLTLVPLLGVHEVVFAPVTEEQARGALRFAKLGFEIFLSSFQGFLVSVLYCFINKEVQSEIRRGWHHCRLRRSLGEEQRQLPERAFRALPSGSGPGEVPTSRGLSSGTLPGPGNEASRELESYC
Method in brief: as §1

[3] = target: T1, GLP-1R; assay: PathHunter β-arrestin assay
Method in brief: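 β-Arrestin recruitment measured by PathHunter enzyme-fragment luminescence, read after 3 h dark incubation at room temperature with detection solution. Beforehand, agonist in a 22-point 2-fold series was applied in duplicate for 90 min at 37 °C to 5,000 cells/well in BSA-containing (0.2%) medium.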

[4] = Table 3, read-out: EC50 GLP-1R/nM
[5] = Table 3A, read-out: EC50 GLP-1R/nM
[6] = Table 3, read-out: EC50 GIP-R/nM
[7] = Table 3A, read-out: EC50 GIP-R/nM
[8] = PathHunter β-arrestin assay, read-out: β-arrestin activity EC50

Row | Compound | EC50 ([1]; EC50 GLP-1R/nM, Table 3) [nM] | EC50 ([1]; EC50 GLP-1R/nM, Table 3A) [nM] | Emax ([1]; Table 3) [%] | Emax ([1]; Table 3A) [%] | EC50 ([2]; EC50 GIP-R/nM, Table 3) [nM] | EC50 ([2]; EC50 GIP-R/nM, Table 3A) [nM] | Emax ([2]; Table 3) [%] | Emax ([2]; Table 3A) [%] | EC50 [3] [nM] | EC50 [1, 4] [nM] | EC50 [1, 5] [nM] | EC50 [2, 6] [nM] | EC50 [2, 7] [nM] | EC50 [3, 8] [nM]
1 | CCCCCCCCCCCCCCCC(=O)N[C@@H](CCC(=O)NCCCC[C@H](NC(=O)[C@H](CO)NC(=O)[C@@H]1CCCN1C(=O)[C@@H]1CCCN1C(=O)[C@@H]1CCCN1C(=O)[C@H](C)NC(=O)CNC(=O)[C@H](CO)NC(=O)[C@H](CO)NC(=O)[C@@H]1CCCN1C(=O)CNC(=O)CNC(=O)[C@H](C)NC(=O)[C@H](CC(C)C)NC(=O)[C@H](CC(C)C)NC(=O)[C@H](Cc1c[nH]c2ccccc12)NC(=O)[C@H](CC(N)=O)NC(=O)[C@@H](NC(=O)[C@H](Cc1ccccc1)NC(=O)[C@H](CCC(=O)O)NC(=O)C(C)(C)NC(=O)[C@H](C)NC(=O)[C@H](C)NC(=O)[C@H](CCC(N)=O)NC(=O)[C@H](CCCCN)NC(=O)[C@H](CC(=O)O)NC(=O)[C@H](CC(C)C)NC(=O)[C@H](Cc1ccc(O)cc1)NC(=O)[C@@H](NC(=O)[C@H](CO)NC(=O)[C@H](Cc1ccc(O)cc1)NC(=O)[C@H](CC(=O)O)NC(=O)[C@H](CO)NC(=O)[C@@H](NC(=O)[C@H](Cc1ccccc1)NC(=O)[C@@H](NC(=O)CNC(=O)[C@H](CCC(=O)O)NC(=O)CSCC(=O)NCCN1C[C@@H](OC)CC1=O)[C@@H](C)O)[C@@H](C)O)[C@@H](C)CC)C(C)C)C(N)=O)C(=O)O [Compound 22] | 0.1 to 1 | 0.1 to 1 | 90 | 90 | 0.1 to 1 | 0.1 to 1 | 46 | 46 | > 1000 | – | – | – | – | –
2 | CCCCCCCCCCCCCCCC(=O)N[C@@H](CCC(=O)NCCCC[C@H](NC(=O)[C@H](CO)NC(=O)[C@@H]1CCCN1C(=O)[C@@H]1CCCN1C(=O)[C@@H]1CCCN1C(=O)[C@H](C)NC(=O)CNC(=O)[C@H](CO)NC(=O)[C@H](CO)NC(=O)[C@@H]1CCCN1C(=O)CNC(=O)CNC(=O)[C@H](C)NC(=O)[C@H](CC(C)C)NC(=O)[C@H](CC(C)C)NC(=O)[C@H](Cc1c[nH]c2ccccc12)NC(=O)[C@H](CC(N)=O)NC(=O)[C@@H](NC(=O)[C@H](Cc1ccccc1)NC(=O)[C@H](CCC(=O)O)NC(=O)C(C)(C)NC(=O)[C@H](C)NC(=O)[C@H](C)NC(=O)[C@H](CCC(N)=O)NC(=O)[C@H](CCCCN)NC(=O)[C@H](CC(=O)O)NC(=O)[C@H](CC(C)C)NC(=O)[C@H](Cc1ccc(O)cc1)NC(=O)[C@@H](NC(=O)[C@H](CO)NC(=O)[C@H](Cc1ccc(O)cc1)NC(=O)[C@H](CC(=O)O)NC(=O)[C@H](CO)NC(=O)[C@@H](NC(=O)[C@H](Cc1ccccc1)NC(=O)[C@@H](NC(=O)CNC(=O)[C@H](CCC(=O)O)NC(=O)CSCC(=O)NCCN1CCCNC1=O)[C@@H](C)O)[C@@H](C)O)[C@@H](C)CC)C(C)C)C(N)=O)C(=O)O [Compound 31] | – | – | 102 | 102 | – | – | 37 | 37 | – | 1 to 10 | 1 to 10 | 10 to 100 | 10 to 100 | > 1000
3 | CCCCCCCCCCCCCCCC(=O)N[C@@H](CCC(=O)NCCCC[C@H](NC(=O)[C@H](CO)NC(=O)[C@@H]1CCCN1C(=O)[C@@H]1CCCN1C(=O)[C@@H]1CCCN1C(=O)[C@H](C)NC(=O)CNC(=O)[C@H](CO)NC(=O)[C@H](CO)NC(=O)[C@@H]1CCCN1C(=O)CNC(=O)CNC(=O)[C@H](C)NC(=O)[C@H](CC(C)C)NC(=O)[C@H](CC(C)C)NC(=O)[C@H](Cc1c[nH]c2ccccc12)NC(=O)[C@H](CC(N)=O)NC(=O)[C@@H](NC(=O)[C@H](Cc1ccccc1)NC(=O)[C@H](CCC(=O)O)NC(=O)C(C)(C)NC(=O)[C@H](C)NC(=O)[C@H](C)NC(=O)[C@H](CCC(N)=O)NC(=O)[C@H](CCCCN)NC(=O)[C@H](CC(=O)O)NC(=O)[C@H](CC(C)C)NC(=O)[C@H](Cc1ccc(O)cc1)NC(=O)[C@@H](NC(=O)[C@H](CO)NC(=O)[C@H](Cc1ccc(O)cc1)NC(=O)[C@H](CC(=O)O)NC(=O)[C@H](CO)NC(=O)[C@@H](NC(=O)[C@H](Cc1ccccc1)NC(=O)[C@@H](NC(=O)CNC(=O)[C@H](CCC(=O)O)NC(=O)C(C)(C)C(=O)NCCN1CCCCC1=O)[C@@H](C)O)[C@@H](C)O)[C@@H](C)CC)C(C)C)C(N)=O)C(=O)O [Compound 19] | – | – | 93 | 93 | – | – | 50 | 50 | – | < 0.1 | < 0.1 | 0.1 to 1 | 0.1 to 1 | < 10
4 | CCCCCCCCCCCCCCCC(=O)N[C@@H](CCC(=O)NCCCC[C@H](NC(=O)[C@H](CO)NC(=O)[C@@H]1CCCN1C(=O)[C@@H]1CCCN1C(=O)[C@@H]1CCCN1C(=O)[C@H](C)NC(=O)CNC(=O)[C@H](CO)NC(=O)[C@H](CO)NC(=O)[C@@H]1CCCN1C(=O)CNC(=O)CNC(=O)[C@H](C)NC(=O)[C@H](CC(C)C)NC(=O)[C@H](CC(C)C)NC(=O)[C@H](Cc1c[nH]c2ccccc12)NC(=O)[C@H](CC(N)=O)NC(=O)[C@@H](NC(=O)[C@H](Cc1ccccc1)NC(=O)[C@H](CCC(=O)O)NC(=O)C(C)(C)NC(=O)[C@H](C)NC(=O)[C@H](C)NC(=O)[C@H](CCC(N)=O)NC(=O)[C@H](CCCCN)NC(=O)[C@H](CC(=O)O)NC(=O)[C@H](CC(C)C)NC(=O)[C@H](Cc1ccc(O)cc1)NC(=O)[C@@H](NC(=O)[C@H](CO)NC(=O)[C@H](Cc1ccc(O)cc1)NC(=O)[C@H](CC(=O)O)NC(=O)[C@H](CO)NC(=O)[C@@H](NC(=O)[C@H](Cc1ccccc1)NC(=O)[C@@H](NC(=O)CNC(=O)[C@H](CCC(=O)O)NC(=O)CSCC(=O)NCCN1CCSCC1=O)[C@@H](C)O)[C@@H](C)O)[C@@H](C)CC)C(C)C)C(N)=O)C(=O)O [Compound 36] | – | – | 108 | 108 | – | – | 51 to 75 | 51 to 75 | – | < 1 | < 1 | 0.1 to 10 | 0.1 to 10 | > 1000
5 | CCCCCCCCCCCCCCCC(=O)N[C@@H](CCC(=O)NCCCC[C@H](NC(=O)[C@H](CO)NC(=O)[C@@H]1CCCN1C(=O)[C@@H]1CCCN1C(=O)[C@@H]1CCCN1C(=O)[C@H](C)NC(=O)CNC(=O)[C@H](CO)NC(=O)[C@H](CO)NC(=O)[C@@H]1CCCN1C(=O)CNC(=O)CNC(=O)[C@H](C)NC(=O)[C@H](CC(C)C)NC(=O)[C@H](CC(C)C)NC(=O)[C@H](Cc1c[nH]c2ccccc12)NC(=O)[C@H](CC(N)=O)NC(=O)[C@@H](NC(=O)[C@H](Cc1ccccc1)NC(=O)[C@H](CCC(=O)O)NC(=O)C(C)(C)NC(=O)[C@H](C)NC(=O)[C@H](C)NC(=O)[C@H](CCC(N)=O)NC(=O)[C@H](CCCCN)NC(=O)[C@H](CC(=O)O)NC(=O)[C@H](CCSC)NC(=O)[C@H](C)NC(=O)[C@@H](NC(=O)[C@H](CO)NC(=O)[C@H](Cc1ccc(O)cc1)NC(=O)[C@H](CC(=O)O)NC(=O)[C@H](CO)NC(=O)[C@@H](NC(=O)[C@H](Cc1ccccc1)NC(=O)[C@@H](NC(=O)CNC(=O)[C@H](CCC(=O)O)NC(=O)CSCC(=O)NCCN1C(=O)CSC1=O)[C@@H](C)O)[C@@H](C)O)[C@@H](C)CC)C(C)C)C(N)=O)C(=O)O [Compound 71] (X2-EGTFTSDYSIAMDKQAA[Aib]EFVNWLLAGGPSSGAPPPSK([γGlu-Palmitoyl])-NH2) | – | – | 102 | 102 | – | – | 77 to 87 | 77 to 87 | – | 0.1 to 10 | 0.1 to 10 | 1 to 10 | 1 to 10 | > 1000
6 | CC[C@H](C)[C@H](NC(=O)[C@H](CO)NC(=O)[C@H](Cc1ccc(O)cc1)NC(=O)[C@H](CC(=O)O)NC(=O)[C@H](CO)NC(=O)[C@@H](NC(=O)[C@H](Cc1ccccc1)NC(=O)[C@@H](NC(=O)CNC(=O)[C@H](CCC(=O)O)NC(=O)C(C)(C)C(=O)NCCn1ncc2ccccc2c1=O)[C@@H](C)O)[C@@H](C)O)C(=O)N[C@@H](Cc1ccc(O)cc1)C(=O)N[C@@H](CC(C)C)C(=O)N[C@@H](CC(=O)O)C(=O)N[C@@H](CCCCN)C(=O)N[C@@H](CCC(N)=O)C(=O)N[C@@H](C)C(=O)N[C@@H](C)C(=O)NC(C)(C)C(=O)N[C@@H](CCC(=O)O)C(=O)N[C@@H](Cc1ccccc1)C(=O)N[C@H](C(=O)N[C@@H](CC(N)=O)C(=O)N[C@@H](Cc1c[nH]c2ccccc12)C(=O)N[C@@H](CC(C)C)C(=O)N[C@@H](CC(C)C)C(=O)N[C@@H](C)C(=O)NCC(=O)NCC(=O)N1CCC[C@H]1C(=O)N[C@@H](CO)C(=O)N[C@@H](CO)C(=O)NCC(=O)N[C@@H](C)C(=O)N1CCC[C@H]1C(=O)N1CCC[C@H]1C(=O)N1CCC[C@H]1C(=O)N[C@@H](CO)C(=O)N[C@@H](CCCCN)C(N)=O)C(C)C [Compound 116] | < 0.1 | < 0.1 | 98 | 98 | 10 to 100 | 10 to 100 | 50 | 50 | > 1000 | – | – | – | – | –
